Patent US20240092784A1, “CONDENSED HETEROCYCLIC COMPOUND” (NISSAN CHEMICAL CORPORATION, priority 2020, published 2024)
Where a name gives a salt, the structure may show the parent alone.

biological target: human SPR (Homo sapiens (Human), UniProt P35270); assay: Evaluation Example 2: Measurement of human SPR inhibitory activity (seven concentrations, sepiapterin absorbance at 420 nm); type: biochemical; details: Evaluation Example 2, seven concentrations 0.14 nM to 100 nM, 240 minutes at room temperature, read-out: IC50
In short: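 Reactions ran 240 min at room temperature in 100 mM Tris-HCl pH 7.5 with 0.01% BSA. They contained tag-cleaved, E. coli-expressed full-length human SPR (diluted to 150 ng/mL), seven compound concentrations from 0.14 to 100 nM, and sepiapterin/NADPH added as a 120 μM/160 μM solution. Inhibition was calculated from sepiapterin absorbance at 420 nm.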

Sequence of human SPR (P35270 whole entry): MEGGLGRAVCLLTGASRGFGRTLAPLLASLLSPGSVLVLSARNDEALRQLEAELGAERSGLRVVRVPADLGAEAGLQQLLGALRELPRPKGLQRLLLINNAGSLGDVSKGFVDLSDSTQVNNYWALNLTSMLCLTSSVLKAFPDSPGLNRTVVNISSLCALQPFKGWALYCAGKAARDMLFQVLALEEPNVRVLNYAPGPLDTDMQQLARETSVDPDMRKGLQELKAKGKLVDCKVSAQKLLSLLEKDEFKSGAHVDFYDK

Going from O=C(NC1CC1)c1c(O)n2nc(Nc3cnccn3)cc2n(CC2CCOCC2)c1=O [Synthesis Example 350, N-Cyclopropyl-7-hydroxy-5-oxo-2-(pyrazin-2-ylamino)-4-((tetrahydro-2H-pyran-4-yl)methyl)-4,5-dihydropyrazolo[1,5-a]pyrimidine-6-carboxamide] to CC(C)(C)Cn1c(=O)c(C(=O)NC2CC2)c(O)n2nc(Nc3cncc(F)n3)cc12 [Synthesis Example 356, N-Cyclopropyl-2-((6-fluoropyrazin-2-yl)amino)-7-hydroxy-4-neopentyl-5-oxo-4,5-dihydropyrazolo[1,5-a]pyrimidine-6-carboxamide], the IC50 rises from 0.75 nM to 1.16 nM (1.5-fold). The first is the more potent here.

First: CC(C)(C)Cn1c(=O)c(C(=O)NC2CC2)c(O)n2nc(Nc3ccnc(C(N)=O)n3)cc12 [Synthesis Example 351, 2-((2-Carbamoylpyrimidin-4-yl)amino)-N-cyclopropyl-7-hydroxy-4-neopentyl-5-oxo-4,5-dihydropyrazolo[1,5-a]pyrimidine-6-carboxamide]
Second: CC(C)(C)Cn1c(=O)c(C(=O)NC2CC2)c(O)n2nc(Nc3ncco3)cc12 [Synthesis Example 361, N-Cyclopropyl-7-hydroxy-4-neopentyl-2-(oxazol-2-ylamino)-5-oxo-4,5-dihydropyrazolo[1,5-a]pyrimidine-6-carboxamide]
The IC50 of the first is 1.6-fold lower: 0.9 nM for the first, 1.42 nM for the second. The first is the more potent here.

CC(C)(C)Cn1c(=O)c(C(=O)NC2CC2)c(O)n2nc(Nc3cnc(C(=O)NCC(F)(F)F)cn3)cc12 [Synthesis Example 352, N-Cyclopropyl-7-hydroxy-4-neopentyl-5-oxo-2-((5-((2,2,2-trifluoroethyl)carbamoyl)pyrazin-2-yl)amino)-4,5-dihydropyrazolo[1,5-a]pyrimidine-6-carboxamide] and CC(C)(C)Cn1c(=O)c(C(=O)NC2CC2)c(O)n2nc(Nc3cnc(C(=O)NCC(C)(C)O)cn3)cc12 [Synthesis Example 354, N-Cyclopropyl-7-hydroxy-2-((5-((2-hydroxy-2-methylpropyl)carbamoyl)pyrazin 2-yl)amino)-4-neopentyl-5-oxo-4,5-dihydropyrazolo[1,5-a]pyrimidine-6-carboxamide] are within 1.5-fold of each other in IC50: 1.04 nM for the first, 0.86 nM for the second.

CC(C)(C)Cn1c(=O)c(C(=O)NC2CC2)c(O)n2nc(Nc3cnc(C(=O)NCC(F)F)cn3)cc12 [Synthesis Example 353, N-Cyclopropyl-2-((5-((2,2-difluoroethyl)carbamoyl)pyrazin-2-yl)amino)-7-hydroxy-4-neopentyl-5-oxo-4,5-dihydropyrazolo[1,5-a]pyrimidine-6-carboxamide] and CN(CC#N)C(=O)c1cnc(Nc2cc3n(CC(C)(C)C)c(=O)c(C(=O)NC4CC4)c(O)n3n2)cn1 [Synthesis Example 358, 2-((5-((Cyanomethyl)(methyl)carbamoyl)pyrazin-2-yl)amino)-N-cyclopropyl-7-hydroxy-4-neopentyl-5-oxo-4,5-dihydropyrazolo[1,5-a]pyrimidine-6-carboxamide] are within 1.5-fold of each other in IC50: 0.82 nM for the first, 0.87 nM for the second.

CC(C)(C)Cn1c(=O)c(C(=O)NC2CC2)c(O)n2nc(Nc3cnc(C(=O)N4CCC(F)(F)CC4)cn3)cc12 [Synthesis Example 355, N-Cyclopropyl-2-((5-(4,4-difluoropiperidine-1-carbonyl)pyrazin-2-yl)amino)-7-hydroxy-4-neopentyl-5-oxo-4,5-dihydropyrazolo[1,5-a]pyrimidine-6-carboxamide] and CC(C)(C)Cn1c(=O)c(C(=O)NC2CC2)c(O)n2nc(Nc3cnc(C(=O)N4CCC(C#N)CC4)cn3)cc12 [Synthesis Example 359, 2-((5-(4-Cyanopiperidine-1-carbonyl)pyrazin-2-yl)amino)-N-cyclopropyl-7-hydroxy-4-neopentyl-5-oxo-4,5-dihydropyrazolo[1,5-a]pyrimidine-6-carboxamide] are within 1.5-fold of each other in IC50: 1.1 nM for the first, 0.88 nM for the second.

Cn1ccnc1Nc1cc2n(CC(C)(C)C)c(=O)c(C(=O)NC3CC3)c(O)n2n1 [Synthesis Example 357, N-Cyclopropyl-7-hydroxy-2-((1-methyl-1H-imidazol-2-yl)amino)-4-neopentyl-5-oxo-4,5-dihydropyrazolo[1,5-a]pyrimidine-6-carboxamide] and CN(C)/C=N/c1cc2n(CC(C)(C)C)c(=O)c(C(=O)NC3CC3)c(O)n2n1 [Synthesis Example 362, (E)-N-Cyclopropyl-2-(((dimethylamino)methylene)amino)-7-hydroxy-4-neopentyl-5-oxo-4,5-dihydropyrazolo[1,5-a]pyrimidine-6-carboxamide hydrochloride] are within 1.5-fold of each other in IC50: 1.5 nM for the first, 1.48 nM for the second.

CC(C)(C)Cn1c(=O)c(C(=O)NC2CC2)c(O)n2nc(Nc3cnc(C(=O)N4CC[C@H](O)C4)cn3)cc12 [Synthesis Example 360, (S)-N-Cyclopropyl-7-hydroxy-2-((5-(3-hydroxypyrrolidine-1-carbonyl)pyrazin-2-yl)amino)-4-neopentyl-5-oxo-4,5-dihydropyrazolo[1,5-a]pyrimidine-6-carboxamide] and COC(C)(C)Cn1c(=O)c(C(=O)NC2CC2)c(O)n2ncc(/C=C/C(=O)N3CCOCC3)c12 [Synthesis Example 365, (E)-N-Cyclopropyl-7-hydroxy-4-(2-methoxy-2-methylpropyl)-3-(3-morpholino-3-oxoprop-1-en-1-yl)-5-oxo-4,5-dihydropyrazolo[1,5-a]pyrimidine-6-carboxamide] are within 1.5-fold of each other in IC50: 0.76 nM for the first, 0.65 nM for the second.

First: CC(C)Cn1c(=O)c(C(=O)NC2CC2)c(O)n2nc(/N=C/N(C)C)cc12 [Synthesis Example 363, (E)-N-Cyclopropyl-2-(((dimethylamino)methylene)amino)-7-hydroxy-4-isobutyl-5-oxo-4,5-dihydropyrazolo[1,5-a]pyrimidine-6-carboxamide hydrochloride]
Second: CC1(Cn2c(=O)c(C(=O)NC3CC3)c(O)n3ncc(/C=C/C(=O)N4CCOCC4)c23)CC1 [Synthesis Example 366, (E)-N-Cyclopropyl-7-hydroxy-4-((1-methylcyclopropyl)methyl)-3-(3-morpholino-3-oxoprop-1-en-1-yl)-5-oxo-4,5-dihydropyrazolo[1,5-a]pyrimidine-6-carboxamide]
The IC50 of the first is 2.1-fold higher: 1.61 nM for the first, 0.75 nM for the second.

O=C(NC1CC1)c1c(O)n2ncc(/C=C/C(=O)N3CCOCC3)c2n(CC2(F)CC2)c1=O [Synthesis Example 364, (E)-N-Cyclopropyl-4-((1-fluorocyclopropyl)methyl)-7-hydroxy-3-(3-morpholino-3-oxoprop-1-en-1-yl)-5-oxo-4,5-dihydropyrazolo[1,5-a]pyrimidine-6-carboxamide] and CC1(Cn2c(=O)c(C(=O)NC3CC3)c(O)n3ncc(/C=C/C(=O)N4CC5CCC(C4)O5)c23)CC1 [Synthesis Example 368, (E)-3-(3-(8-Oxa-3-azabicyclo[3.2.1]octan-3-yl)-3-oxoprop-1-en-1-yl)-N-cyclopropyl-7-hydroxy-4-((1-methylcyclopropyl)methyl)-5-oxo-4,5-dihydropyrazolo[1,5-a]pyrimidine-6-carboxamide] are within 1.5-fold of each other in IC50: 0.63 nM for the first, 0.61 nM for the second.

Molecule CC1(Cn2c(=O)c(C(=O)NC3CC3)c(O)n3ncc(/C=C/C(=O)N4C5CCC4COC5)c23)CC1 [Synthesis Example 367, (E)-3-(3-(3-Oxa-8-azabicyclo[3.2.1]octan-8-yl)-3-oxoprop-1-en-1-yl)-N-cyclopropyl-7-hydroxy-4-((1-methylcyclopropyl)methyl)-5-oxo-4,5-dihydropyrazolo[1,5-a]pyrimidine-6-carboxamide] has an IC50 of 0.62 nM.
